The source made the active and inactive calls. The calls are words filed in the database; no cut-off is given here.
Tests used:
[1] = target: Casein kinase I isoform epsilon (Homo sapiens) (UniProt P49674); details: Compound concentration 1000.0 nM
[2] = target: Serine/threonine-protein kinase PLK1 (Homo sapiens) (UniProt P53350); details: Compound concentration 1000.0 nM
[3] = target: Serine/threonine-protein kinase Nek3 (Homo sapiens) (UniProt P51956); details: Compound concentration 1000.0 nM
[4] = target: Mitogen-activated protein kinase kinase kinase 7 (Homo sapiens) (UniProt O43318); details: Compound concentration 1000.0 nM
[5] = target: Cyclin-dependent kinase 2 homolog (Plasmodium falciparum (isolate 3D7)) (UniProt P61075); details: Compound concentration 1000.0 nM
[6] = target: Serine/threonine-protein kinase MARK1 (Homo sapiens) (UniProt Q9P0L2); details: Compound concentration 1000.0 nM
[7] = target: Dual specificity mitogen-activated protein kinase kinase 6 (Homo sapiens) (UniProt P52564); details: Compound concentration 1000.0 nM
Sequence of Dual specificity mitogen-activated protein kinase kinase 6 (Homo sapiens) (P52564 whole entry): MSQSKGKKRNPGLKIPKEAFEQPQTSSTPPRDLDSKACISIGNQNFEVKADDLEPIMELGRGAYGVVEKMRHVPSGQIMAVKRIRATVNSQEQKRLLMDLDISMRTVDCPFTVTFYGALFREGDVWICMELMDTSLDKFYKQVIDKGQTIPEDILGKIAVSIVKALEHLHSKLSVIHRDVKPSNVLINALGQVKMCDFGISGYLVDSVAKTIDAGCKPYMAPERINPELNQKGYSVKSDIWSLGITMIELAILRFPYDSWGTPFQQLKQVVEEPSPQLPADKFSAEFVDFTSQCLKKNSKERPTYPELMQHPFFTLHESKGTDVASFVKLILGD

[8] = target: Serine/threonine-protein kinase 38-like (Homo sapiens) (UniProt Q9Y2H1); details: Compound concentration 1000.0 nM
[9] = target: Serine/threonine-protein kinase PAK 1 (Homo sapiens) (UniProt Q13153); details: Compound concentration 1000.0 nM
[10] = target: SRSF protein kinase 1 (Homo sapiens) (UniProt Q96SB4); details: Compound concentration 1000.0 nM
Sequence of SRSF protein kinase 1 (Homo sapiens) (Q96SB4 whole entry): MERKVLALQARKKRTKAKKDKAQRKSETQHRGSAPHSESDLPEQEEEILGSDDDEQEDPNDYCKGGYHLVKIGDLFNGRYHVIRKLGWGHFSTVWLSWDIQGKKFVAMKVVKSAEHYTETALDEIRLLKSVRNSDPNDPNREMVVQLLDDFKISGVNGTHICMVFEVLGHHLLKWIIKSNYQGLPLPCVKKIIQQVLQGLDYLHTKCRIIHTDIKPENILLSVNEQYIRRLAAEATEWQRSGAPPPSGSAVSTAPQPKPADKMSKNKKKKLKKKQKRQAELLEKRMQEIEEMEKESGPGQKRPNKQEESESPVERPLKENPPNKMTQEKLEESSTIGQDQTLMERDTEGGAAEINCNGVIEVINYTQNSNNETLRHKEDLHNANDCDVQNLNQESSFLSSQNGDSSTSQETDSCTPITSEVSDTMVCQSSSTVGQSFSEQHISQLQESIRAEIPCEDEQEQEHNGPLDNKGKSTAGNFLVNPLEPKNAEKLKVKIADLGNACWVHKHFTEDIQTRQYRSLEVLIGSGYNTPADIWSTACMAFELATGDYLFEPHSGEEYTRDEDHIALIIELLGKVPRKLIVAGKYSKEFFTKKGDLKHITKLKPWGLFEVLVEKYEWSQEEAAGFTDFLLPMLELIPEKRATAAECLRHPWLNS

[11] = target: Muscarinic acetylcholine receptor M1 (Homo sapiens) (UniProt P11229); details: Compound concentration 10.0 uM
[12] = target: Cyclin-dependent kinase 11B (Homo sapiens) (UniProt P21127); details: Compound concentration 1000.0 nM
[13] = target: Cyclin-dependent kinase-like 5 (Homo sapiens) (UniProt O76039); details: Compound concentration 1000.0 nM
[14] = target: Sodium-dependent serotonin transporter (Homo sapiens) (UniProt P31645); details: Compound concentration 10.0 uM
[15] = target: Mitogen-activated protein kinase 11 (Homo sapiens) (UniProt Q15759); details: Compound concentration 1000.0 nM
[16] = target: Mitogen-activated protein kinase kinase kinase 10 (Homo sapiens) (UniProt Q02779); details: Compound concentration 1000.0 nM
[17] = target: Cytoplasmic tyrosine-protein kinase BMX (Homo sapiens) (UniProt P51813); details: Compound concentration 1000.0 nM
[18] = target: Receptor-interacting serine/threonine-protein kinase 2 (Homo sapiens) (UniProt O43353); details: Compound concentration 1000.0 nM
[19] = target: Serine/threonine-protein kinase PAK 3 (Homo sapiens) (UniProt O75914); details: Compound concentration 1000.0 nM
[20] = target: Cyclin-dependent kinase 16 (Homo sapiens) (UniProt Q00536); details: Compound concentration 1000.0 nM
Sequence of Cyclin-dependent kinase 16 (Homo sapiens) (Q00536 whole entry): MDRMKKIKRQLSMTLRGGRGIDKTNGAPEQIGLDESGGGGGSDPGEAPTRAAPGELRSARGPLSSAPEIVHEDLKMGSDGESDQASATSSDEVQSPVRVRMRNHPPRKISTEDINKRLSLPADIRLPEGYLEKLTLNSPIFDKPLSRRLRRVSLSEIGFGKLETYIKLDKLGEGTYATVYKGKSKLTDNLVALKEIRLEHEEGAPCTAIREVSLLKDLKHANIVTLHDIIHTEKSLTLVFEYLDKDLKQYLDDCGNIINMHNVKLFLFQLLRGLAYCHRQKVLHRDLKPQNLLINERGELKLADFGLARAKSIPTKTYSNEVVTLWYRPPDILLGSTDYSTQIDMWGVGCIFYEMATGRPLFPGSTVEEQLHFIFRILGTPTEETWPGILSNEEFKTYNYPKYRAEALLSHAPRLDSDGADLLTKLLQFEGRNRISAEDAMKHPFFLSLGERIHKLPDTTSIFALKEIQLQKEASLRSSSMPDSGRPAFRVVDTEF

[21] = target: Mitogen-activated protein kinase 13 (Homo sapiens) (UniProt O15264); details: Compound concentration 1000.0 nM
[22] = target: Methionine aminopeptidase 2 (Homo sapiens, UniProt P50579); assay: Biochemical activity-MetAP2 using Co
[23] = target: Serine/threonine-protein kinase PknB (Mycobacterium tuberculosis) (UniProt P9WI81); details: Compound concentration 1000.0 nM
[24] = target: Serine/threonine-protein kinase Nek1 (Homo sapiens) (UniProt Q96PY6); details: Compound concentration 1000.0 nM
[25] = test system: Proto-oncogene tyrosine-protein kinase receptor Ret (Homo sapiens), P07949 [M918T]; details: Compound concentration 1000.0 nM
[26] = test system: Phosphatidylinositol 4,5-bisphosphate 3-kinase catalytic subunit alpha isoform (Homo sapiens), P42336 [Q546K]; details: Compound concentration 1000.0 nM
[27] = target: Serine/threonine-protein kinase 4 (Homo sapiens) (UniProt Q13043); details: Compound concentration 1000.0 nM
[28] = target: Wee1-like protein kinase (Homo sapiens) (UniProt P30291); details: Compound concentration 1000.0 nM
[29] = target: Receptor tyrosine-protein kinase erbB-2 (Homo sapiens) (UniProt P04626); details: Compound concentration 1000.0 nM
[30] = target: Serine/threonine-protein kinase PAK 4 (Homo sapiens) (UniProt O96013); details: Compound concentration 1000.0 nM
[31] = target: Ribosomal protein S6 kinase alpha-2 (Homo sapiens) (UniProt Q15349); details: Compound concentration 1000.0 nM
Sequence of Ribosomal protein S6 kinase alpha-2 (Homo sapiens) (Q15349 whole entry): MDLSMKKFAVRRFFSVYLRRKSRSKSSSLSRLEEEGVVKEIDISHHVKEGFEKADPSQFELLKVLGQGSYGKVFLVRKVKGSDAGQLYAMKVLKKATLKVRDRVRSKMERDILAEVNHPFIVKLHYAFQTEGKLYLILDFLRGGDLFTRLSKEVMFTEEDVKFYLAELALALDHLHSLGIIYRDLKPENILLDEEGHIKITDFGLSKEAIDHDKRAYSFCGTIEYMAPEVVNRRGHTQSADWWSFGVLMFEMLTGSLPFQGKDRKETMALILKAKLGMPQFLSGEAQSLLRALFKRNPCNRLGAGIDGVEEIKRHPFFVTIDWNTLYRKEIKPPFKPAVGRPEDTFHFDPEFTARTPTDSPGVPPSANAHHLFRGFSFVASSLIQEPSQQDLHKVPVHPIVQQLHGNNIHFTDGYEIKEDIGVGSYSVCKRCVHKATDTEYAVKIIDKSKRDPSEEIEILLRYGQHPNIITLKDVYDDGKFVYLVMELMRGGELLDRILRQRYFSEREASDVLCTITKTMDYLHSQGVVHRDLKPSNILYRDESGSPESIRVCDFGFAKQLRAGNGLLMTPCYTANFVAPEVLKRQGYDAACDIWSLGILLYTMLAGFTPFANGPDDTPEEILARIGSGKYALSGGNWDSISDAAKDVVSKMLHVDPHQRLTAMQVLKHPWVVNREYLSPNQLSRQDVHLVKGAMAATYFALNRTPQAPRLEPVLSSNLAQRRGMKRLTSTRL

[32] = target: Protein-tyrosine kinase 2-beta (Homo sapiens) (UniProt Q14289); details: Compound concentration 1000.0 nM
[33] = target: Protein kinase C theta type (Homo sapiens) (UniProt Q04759); details: Compound concentration 1000.0 nM
[34] = target: Serine/threonine-protein kinase Nek5 (Homo sapiens) (UniProt Q6P3R8); details: Compound concentration 1000.0 nM
[35] = target: Dual specificity tyrosine-phosphorylation-regulated kinase 1A (Homo sapiens) (UniProt Q13627); details: Compound concentration 1000.0 nM
[36] = target: G protein-coupled receptor kinase 3 (Homo sapiens) (UniProt P35626); details: Compound concentration 1000.0 nM
Sequence of G protein-coupled receptor kinase 3 (Homo sapiens) (P35626 whole entry): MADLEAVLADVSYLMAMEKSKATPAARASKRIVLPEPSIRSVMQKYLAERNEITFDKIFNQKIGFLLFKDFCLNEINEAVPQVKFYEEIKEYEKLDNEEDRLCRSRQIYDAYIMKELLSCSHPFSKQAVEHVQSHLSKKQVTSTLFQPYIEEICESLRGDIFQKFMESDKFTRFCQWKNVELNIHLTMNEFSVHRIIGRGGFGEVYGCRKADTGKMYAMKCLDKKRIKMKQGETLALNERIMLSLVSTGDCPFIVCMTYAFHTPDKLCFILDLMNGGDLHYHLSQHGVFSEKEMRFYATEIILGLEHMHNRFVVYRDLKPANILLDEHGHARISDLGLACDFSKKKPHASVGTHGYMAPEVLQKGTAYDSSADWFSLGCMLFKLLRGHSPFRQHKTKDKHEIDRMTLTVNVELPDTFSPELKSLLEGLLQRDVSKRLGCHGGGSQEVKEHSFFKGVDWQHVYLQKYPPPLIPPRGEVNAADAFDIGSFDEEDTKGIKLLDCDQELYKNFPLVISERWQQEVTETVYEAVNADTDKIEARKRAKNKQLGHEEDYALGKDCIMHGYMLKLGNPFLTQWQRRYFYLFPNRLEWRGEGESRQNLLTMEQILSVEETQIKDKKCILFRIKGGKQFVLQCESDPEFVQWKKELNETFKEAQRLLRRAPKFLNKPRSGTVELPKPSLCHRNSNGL

[37] = target: Receptor tyrosine-protein kinase erbB-4 (Homo sapiens) (UniProt Q15303); details: Compound concentration 1000.0 nM
[38] = target: Sigma intracellular receptor 2 (Homo sapiens) (UniProt Q5BJF2); details: Compound concentration 10.0 uM
Sequence of Sigma intracellular receptor 2 (Homo sapiens) (Q5BJF2 whole entry): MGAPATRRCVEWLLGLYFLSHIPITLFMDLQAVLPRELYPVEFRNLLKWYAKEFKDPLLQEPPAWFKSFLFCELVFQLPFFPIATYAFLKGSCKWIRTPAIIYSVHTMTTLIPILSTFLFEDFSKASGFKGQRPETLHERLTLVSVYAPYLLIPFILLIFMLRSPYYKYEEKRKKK

[39] = target: Ephrin type-B receptor 4 (Homo sapiens) (UniProt P54760); details: Compound concentration 1000.0 nM
[40] = target: Serine/threonine-protein kinase ICK (Homo sapiens) (UniProt Q9UPZ9); details: Compound concentration 1000.0 nM
[41] = target: Ribosomal protein S6 kinase alpha-3 (Homo sapiens) (UniProt P51812); details: Compound concentration 1000.0 nM
[42] = target: Sodium-dependent dopamine transporter (Homo sapiens, UniProt Q01959); assay: GPCRScan assay: inhibition of DAT; set-up: radioligand conc. used [nm] 3.6 – 16.0, parental cells stable HEK
Sequence of Sodium-dependent dopamine transporter (Q01959 whole entry, canonical isoform): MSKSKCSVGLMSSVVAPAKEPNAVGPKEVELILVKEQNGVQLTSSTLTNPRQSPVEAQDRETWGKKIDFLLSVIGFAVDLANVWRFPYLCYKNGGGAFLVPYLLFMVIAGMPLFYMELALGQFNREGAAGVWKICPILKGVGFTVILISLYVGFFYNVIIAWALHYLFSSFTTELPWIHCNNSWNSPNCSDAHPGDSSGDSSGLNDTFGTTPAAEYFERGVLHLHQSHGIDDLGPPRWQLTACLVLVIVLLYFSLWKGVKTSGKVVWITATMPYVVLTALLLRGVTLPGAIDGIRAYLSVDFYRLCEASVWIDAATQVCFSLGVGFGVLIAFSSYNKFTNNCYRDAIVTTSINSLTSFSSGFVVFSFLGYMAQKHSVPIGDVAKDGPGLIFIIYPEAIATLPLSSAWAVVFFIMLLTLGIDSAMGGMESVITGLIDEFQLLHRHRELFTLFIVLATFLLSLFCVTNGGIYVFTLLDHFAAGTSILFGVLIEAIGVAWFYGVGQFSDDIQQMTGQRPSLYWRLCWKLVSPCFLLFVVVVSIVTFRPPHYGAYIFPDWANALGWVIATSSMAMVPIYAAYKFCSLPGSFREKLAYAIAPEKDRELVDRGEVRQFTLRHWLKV

[43] = test system: Phosphatidylinositol 4,5-bisphosphate 3-kinase catalytic subunit alpha isoform (Homo sapiens), P42336 [C420R]; details: Compound concentration 1000.0 nM
[44] = target: Serine/threonine-protein kinase SIK3 (Homo sapiens) (UniProt Q9Y2K2); details: Compound concentration 1000.0 nM
Sequence of Serine/threonine-protein kinase SIK3 (Homo sapiens) (Q9Y2K2 whole entry, looked up): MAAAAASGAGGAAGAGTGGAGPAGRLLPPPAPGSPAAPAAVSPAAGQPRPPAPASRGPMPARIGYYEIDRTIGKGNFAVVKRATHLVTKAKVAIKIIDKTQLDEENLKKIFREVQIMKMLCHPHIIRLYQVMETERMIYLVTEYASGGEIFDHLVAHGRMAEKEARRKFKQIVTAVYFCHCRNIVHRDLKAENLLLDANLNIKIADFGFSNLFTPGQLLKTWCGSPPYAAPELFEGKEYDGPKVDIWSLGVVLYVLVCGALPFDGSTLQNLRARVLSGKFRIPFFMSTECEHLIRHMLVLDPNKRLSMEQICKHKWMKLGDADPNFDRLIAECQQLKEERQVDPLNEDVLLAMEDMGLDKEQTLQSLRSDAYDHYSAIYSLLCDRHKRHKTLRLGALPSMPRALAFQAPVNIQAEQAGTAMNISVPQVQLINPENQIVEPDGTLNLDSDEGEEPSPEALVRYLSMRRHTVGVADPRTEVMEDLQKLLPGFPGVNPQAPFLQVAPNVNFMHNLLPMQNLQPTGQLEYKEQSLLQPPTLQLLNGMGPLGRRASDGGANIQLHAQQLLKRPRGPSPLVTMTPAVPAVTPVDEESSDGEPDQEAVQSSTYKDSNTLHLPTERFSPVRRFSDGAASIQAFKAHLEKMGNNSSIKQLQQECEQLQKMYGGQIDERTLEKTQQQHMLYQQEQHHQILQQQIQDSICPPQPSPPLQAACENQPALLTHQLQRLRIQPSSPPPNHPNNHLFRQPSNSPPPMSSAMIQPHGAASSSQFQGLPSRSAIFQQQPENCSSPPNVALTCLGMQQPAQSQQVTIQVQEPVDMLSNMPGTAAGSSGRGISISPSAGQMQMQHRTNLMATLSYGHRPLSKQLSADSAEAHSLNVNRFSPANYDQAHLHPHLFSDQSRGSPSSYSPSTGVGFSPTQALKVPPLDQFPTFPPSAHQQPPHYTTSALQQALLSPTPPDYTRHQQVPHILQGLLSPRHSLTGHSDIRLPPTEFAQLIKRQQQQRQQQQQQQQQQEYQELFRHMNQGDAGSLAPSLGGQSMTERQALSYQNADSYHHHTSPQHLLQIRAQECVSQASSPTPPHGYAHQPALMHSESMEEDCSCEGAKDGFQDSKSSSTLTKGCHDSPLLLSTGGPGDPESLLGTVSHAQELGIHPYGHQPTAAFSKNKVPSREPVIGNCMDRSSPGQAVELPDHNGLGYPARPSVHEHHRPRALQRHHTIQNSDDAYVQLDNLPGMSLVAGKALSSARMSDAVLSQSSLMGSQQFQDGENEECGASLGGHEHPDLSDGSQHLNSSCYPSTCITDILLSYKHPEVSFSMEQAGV

[45] = test system: Hepatocyte growth factor receptor (Homo sapiens), P08581 [Y1235D]; details: Compound concentration 1000.0 nM

## Cc1nc(N2CC[C@@H](O)C2)ncc1-c1cc(C(F)(F)F)cc2[nH]ncc12 [TP-004]
[1]
  residual activity: 79%
[2]
  residual activity: 64%
[3]
  residual activity: 60%
[4]
  residual activity: 89%
[5]
  residual activity: 61%
[6]
  residual activity: 74%
[7]
  residual activity: 100%
[8]
  residual activity: 87%
[9]
  residual activity: 100%
[10]
  residual activity: 100%
[11]
  inhibition: 1.12%
[12]
  residual activity: 94%
[13]
  residual activity: 77%
[14]
  inhibition: -6.93%
[15]
  residual activity: 100%
[16]
  residual activity: 100%
[17]
  residual activity: 100%
[18]
  residual activity: 95%
[19]
  residual activity: 72%
[20]
  residual activity: 75%
[21]
  residual activity: 100%
[22]
  IC50: 31 nM (active)
[23]
  residual activity: 89%
[24]
  residual activity: 100%
[25]
  residual activity: 100%
[26]
  residual activity: 82%
[27]
  residual activity: 83%
[28]
  residual activity: 73%
[29]
  residual activity: 87%
[30]
  residual activity: 100%
[31]
  residual activity: 100%
[32]
  residual activity: 100%
[33]
  residual activity: 100%
[34]
  residual activity: 100%
[35]
  residual activity: 73%
[36]
  residual activity: 87%
[37]
  residual activity: 87%
[38]
  inhibition: 45.5%
[39]
  residual activity: 100%
[40]
  residual activity: 100%
[41]
  residual activity: 48%
[42]; read-out: Ki
  Ki: 1680 nM
[42]; read-out: pKi (converted)
  Ki: 1580 nM
[43]
  residual activity: 82%
[44]
  residual activity: 53%
[45]
  residual activity: 81%
